This is an account of results in US8686039B2, “Aqueous nanoemulsion composition containing conjugated linoleic acid” (Hwail Pharmaceutical Co., Ltd., priority 2009, dated 2014).

For series [1], the system named is 3T3-L1 pre-adipocytes. Put plainly: Glycerol quantification (free glycerol reagent). In kind it is cell-based. Conditions: 10 μg/mL, medium after 24 hours treatment, FIG. 7. How it is done: (§1) 3T3-L1 pre-adipocytes were cultured in Dulbecco's Modified Eagle's Medium (DMEM) containing 10% fetal bovine serum, 100 unit/mL penicillin and 10 μg/mL streptomycin at 37° C., 5% CO2 incubator. When 70 to 80% of cells were confluent, cells were pre-differentiated with DMEM containing dexamethazone, pioglitazone, IBMX (3-isobutyl-1-methylxanthin), insulin and FBS which are differentiation inducers, and then were differentiated with DMEM containing insulin, pioglitazone and FBS. After differentiation, lipids were matured with growth medium containing 10% FBS and insulin. Samples were dissolved in DMSO and treated in 10 μg/mL of the final concentration.
Glycerol was quantified with an enzyme reaction method by using free glycerol reagent (Sigma, USA). 10 μl of medium, collected after treatment of cells with sample for 24 hours was added to 0.8 mL of Free glycerol reagent which was pre-warmed at 37° C., and then the reaction of the mixture was carried out in 37° C. water bath for 5 minutes. For quantification of glycerol, standard glycerol (25 μg/10 μl) was reacted in the same manner as above, and then absorbance at 540 nm was measured. The content of glycerol was calculated with the following formula.

The test system of series [2] is male Sprague-Dawley rats. The experiment in a line: Serum cholesterol and neutral lipid in rats fed experimental diet. In kind it is in vivo. Conditions: HF diet + 2% test material, 5 weeks, FIG. 11. The source says:
(§2) 28 male Sprague-Dawley rats (5 weeks, 145±5 g) were purchased from the Orient Company (Korea) as experimental animals. Rats were adapted with a lab-chow diet in pellet form for a week. Other obesity-induction groups except the normal group (NC) were fed high fat diet ad libitum for 5 weeks to induce obesity, and then rats were divided into four groups (7 rats per group) including the normal group and bred for 5 weeks as represented in FIG. 13.
(§3) AIN-76 diet (Teklad, USA) was used as a base of the experimental diet. Test materials were added at the level of 2% of high fat diet. In the CLA group and N-CLA group, 2% of CLA and N-CLA were added, respectively, while reducing corn oil. Experimental diet and water were supplied ad libitum. During the breeding period, the experimental diets were kept in a 4° C. refrigerator. Each of the animals was placed in an empty cage under a specific environmental condition, at 25±2° C. with a relative humidity of 60±5%, a lighting cycle of 12 hr light/12 hr dark. Body weight and the amount of diet intake were measured at constant time at 2-day intervals during the overall experimental period. Feed efficiency ratio (FER) was calculated by dividing the amount of body weight gain during the experimental period with the amount of diet intake during the same period, and the results are represented in Table 16.
(§4) After breeding, rats were fasted for 12 hours and then primarily anesthetized with ether. […] Liver was isolated, collected, rapidly frozen in liquid nitrogen and stored at −70° C. until sample analysis for measurement of enzyme activity and lipid quantification. […]
Quantification of total serum cholesterol was performed by using a test solution (Asanpharm Co., Korea) utilizing Allain et al. (1974)'s enzyme method. […] Thus, to quantify both CE and free cholesterol, CE was converted into fatty acid and free cholesterol by cholesterol esterase. […] H2O2 was mixed with peroxidase, phenol and 4-amino-antipyrine to emit red color, and then absorbance at 500 nm was measured. […]
The content of HDL-cholesterol was measured with kit reagent (Asanpharm Co., Korea). […]

Series [3] concerns male Sprague-Dawley rats. Put plainly: Body weight, diet intake and FER in high fat diet obesity-induced rats. Conditions: HF diet + 2% test material. It counts as in vivo.
Excerpt: as §2, §3

Series [4] deals with male Sprague-Dawley rats. Put plainly: Organ and white adipose tissue weight in rats fed experimental diet. It counts as in vivo. The settings on record: HF diet + 2% test material, 5 weeks.
Excerpt: as §2, §3
After breeding, rats were fasted for 12 hours and then primarily anesthetized with ether. […] Collected blood was centrifuged at 3,000×g, 4° C. for 15 minutes to obtain serum, and then obtained serum was stored at −70° C. until sample analysis. Organ tissues (liver, heart, kidney, epididymal white adipose tissue and perirenal white adipose tissue) of the experimental animals were washed with PBS (phosphate buffered saline) several times, and then weighed after removing surface moisture. Liver was isolated, collected, rapidly frozen in liquid nitrogen and stored at −70° C. until sample analysis for measurement of enzyme activity and lipid quantification. The results of measuring the weight of epididymal white adipose tissue and perirenal white adipose tissue per unit body weight are represented in FIG. 10.

Series [5] concerns 3T3-L1 pre-adipocytes. The experiment in a line: Lipolysis effect (Oil red O staining, neutral lipids). It counts as cell-based. The settings on record: 10 μg/mL, 8th day after differentiation, vs control group, FIGS. 4 and 5. How it is done: as §1
1×10^5 cells were dispensed into each well of 6-well plate and differentiated. On the 8th day after differentiation, media were removed, and cells were washed twice with ice-cold PBS. Cells were fixed with 10% formalin at room temperature for 1 hour, stained with 0.2 Oil red O (in isoprophanol) for 30 minutes, and then washed with distilled water. Isopropanol was added thereto to dissolve oil droplets, and then the content of neutral lipids was measured as absorbance at 490 nm. The results are represented in FIGS. 4 and 5.

The subject of series [6] is leptin secreted from adipocytes. The experiment in a line: Leptin secretion (ELISA). Conditions: 10 μg/mL, FIG. 8. It counts as cell-based, mouse. How it is done: 3T3-L1 pre-adipocytes were cultured in Dulbecco's Modified Eagle's Medium (DMEM) containing 10% fetal bovine serum, 100 unit/mL penicillin and 10 μg/mL streptomycin at 37° C., 5% CO2 incubator. When 70 to 80% of cells were confluent, cells were pre-differentiated with DMEM containing dexamethazone, pioglitazone, IBMX (3-isobutyl-1-methylxanthin), insulin and FBS which are differentiation inducers, and then were differentiated with DMEM containing insulin, pioglitazone and FBS. After differentiation, lipids were matured with growth medium containing 10% FBS and insulin. Samples were dissolved in DMSO and treated in 10 μg/mL of the final concentration. An experiment was carried out to check whether the secretion amount of leptin, which is known as an appetite-related hormone, is regulated. The amount of leptin secreted from adipocytes was measured by enzyme-linked immunosorbent assay (ELISA) on media collected after treatment of adipocytes with sample. 100 μl of rabbit anti-mouse leptin IgG was aliquoted into an ELISA plate. […] Color development was elicited by the use of alkaline phosphatase conjugated substrate kit, and then absorbance at 490 nm was measured by an ELISA reader (SUNRISE, TECAN, Austria). […]

Series [7] has as its system male Sprague-Dawley rats. Put plainly: Liver tissue lipid content in rats fed experimental diet. It counts as in vivo. The settings on record: HF diet + 2% test material, 5 weeks, vs HFD group, FIG. 12.
Excerpt: as §2
as §3, with “During the breeding period, the experimental diets were kept in a 4° C. refrigerator. Each of the animals was placed in an empty cage under a specific environmental condition, at 25±2° C. with a relative humidity of 60±5%, a lighting cycle of 12 hr light/12 hr dark.” left out
as §4

Series [8] relates to 3T3-L1 pre-adipocytes. In kind it is cell-based. Conditions: mouse, 24 h, 10 μg/mL. How it is done: as §1
1×10^4 pre-adipocytes were dispensed into each well of 96-well plate, and each sample was treated. Then cells were incubated at 37° C., 5% CO2 incubator for 24 hours. After 24 hours, MTT (in phosphate buffered saline, final concentration was […]) was treated, and then cells were incubated for 4 hours. Formed formazan crystal was dissolved with DMSO:ethanol (1:1) and absorbance at 540 nm was measured by a microplate reader (SUNRISE, TECAN, Austria). Cell viability was determined by the ratio of absorbance value of sample treating group to absorbance value of control group, and the results are represented in FIG. 3. […] Thus, there is no statistically significant difference from that of the control group.

Series [9] has as its system 3T3-L1 pre-adipocytes. The experiment in a line: Adipogenesis inhibitory effect (Oil red O staining). The settings on record: Mus musculus, 10 μg/mL, treated with MDI medium 48 hours, 8th day after differentiation, FIG. 6, read-out: Content of neutral lipids decreased compared with the control group (adipogenesis inhibitory effect). In kind it is cell-based. How it is done: as §1, with “concentration. 1×10^5 cells were dispensed into each well of 6-well plate. When 70% of cells were confluent, cells were treated with MDI medium (differentiation medium) and each sample at the same time, then incubated for 48 hours. On the 8th day after differentiation, the content of neutral lipids was measured with Oil red O staining. The results are represented in FIG. 6.” for “concentration.”

Take conjugated linoleic acid [CLA]: the “Content of glycerol (secretion of glycerol, lipolysis)” value with 3T3-L1 pre-adipocytes [1] is “tendency of increasing the secretion of glycerol”. Moreover, the “Content of serum neutral lipid (triglyceride, TG)” value in the series on male Sprague-Dawley rats [2] is “lower than HFD group with statistical significance”. Besides, in the series with male Sprague-Dawley rats [2] (vs HFD group), the “Serum total cholesterol (TC)” value is reported as “decreased compared with the HFD group with statistical significance”. Besides, the “Serum low density lipid (LDL)” value in the series with male Sprague-Dawley rats [2] (vs HFD group, calculated by Friedewald method) was “decreased compared with the HFD group with statistical significance”. Besides, in the series with male Sprague-Dawley rats [3] (5th week, FIG. 9), the “Body weight in the 5th week” value is “not different from that of the HFD group with statistical significance”. Moreover, in the series on male Sprague-Dawley rats [3] (5 weeks), the “Body Weight Gain” value was determined as 2.89 ± 0.55 g/day, the “FER (food efficiency ratio) = body weight gain/food intake” value is 0.11 ± 0.02 and the “Food Intake” value is 28.18 ± 0.21 g/day. In addition, the “Body weight change during the experiment period” value in the series with male Sprague-Dawley rats [3] (weeks 2 onward, vs HFD group, FIG. 9) is given as “lower than in the HFD group from the 2nd week to the 4th week”. Moreover, in the series on male Sprague-Dawley rats [4], the “Organ Weight: Heart” value is recorded as 2.43 ± 0.17 mg/g B.W, the “Organ Weight: Kidney” value worked out at 5.35 ± 0.24 mg/g B.W and the “Organ Weight: Liver” value stood at 44.69 ± 2.57 mg/g B.W. Besides, the “Weight of epididymal white adipose tissue and perirenal white adipose tissue per unit body weight” value with male Sprague-Dawley rats [4] (vs HFD group, FIG. 10) is reported as “slightly lighter than in the HFD group without statistical significance”. The “Content of neutral lipids (lipolysis effect)” value in the series on 3T3-L1 pre-adipocytes [5] is on record as “tendency of decreasing neutral lipids”. Moreover, the “Amount of leptin secretion decreased compared with the control group” value in [6] amounted to 8.3%. Besides, in the series on male Sprague-Dawley rats [7], the “Content of neutral lipids in liver tissue” value is reported as “statistically significant decrease compared with the HFD group” and the “Content of total cholesterol in liver tissue” value is “statistically significant decrease compared with the HFD group”.
In the case of `CCCCCCCCCCC[C@@H](C[C@@H]1OC(=O)[C@H]1CCCCCC)OC(=O)[C@H](CC(C)C)NC=O` [Orlistat], the Cell viability in the series with 3T3-L1 pre-adipocytes [8] stood at 103%. The “Content of glycerol (secretion of glycerol, lipolysis)” value in the series with 3T3-L1 pre-adipocytes [1] amounted to 1.57 µg/mL. Besides, the inhibition at 10 µg/mL with 3T3-L1 pre-adipocytes [9] is 12.5%. Further, the “Content of neutral lipids (lipolysis effect)” value with 3T3-L1 pre-adipocytes [5] was “tendency of decreasing neutral lipids”. Moreover, the “Amount of leptin secretion decreased compared with the control group” value in [6] is recorded as 11.6%.
